In ChEMBL document CHEMBL3390836, “Mannich- and LedererManasse-based analogues of the natural product S-(+)-curcuphenol as cancer proliferation and migration inhibitors” (Medchemcomm, 2012):

Legend:
Format in all cases: functional
SK-MEL-5 [1] = assay: Cytotoxicity against human SK-MEL-5 cells after 48 hrs by SRB assay; conditions: SK-MEL-5, 48 h
T47D = assay: Cytotoxicity against human T47D cells assessed as cell growth at 10 uM after 48 hrs by SRB assay relative to control; conditions: read-out: Activity
BT-549 = assay: Cytotoxicity against human BT549 cells assessed as cell growth at 10 uM after 48 hrs by SRB assay relative to control; conditions: BT-549, 48 h, read-out: Activity
MDA-MB-231 [2] = assay: Cytotoxicity against human MDA-MB-231 cells assessed as cell growth at 10 uM after 48 hrs by SRB assay relative to control; conditions: MDA-MB-231, 48 h, read-out: Activity
TK-10 = assay: Cytotoxicity against human TK10 cells assessed as cell growth at 10 uM after 48 hrs by SRB assay relative to control; conditions: TK-10, 48 h, read-out: Activity
ACHN = assay: Cytotoxicity against human ACHN cells assessed as cell growth at 10 uM after 48 hrs by SRB assay relative to control; conditions: read-out: Activity
A498 = assay: Cytotoxicity against human A498 cells assessed as cell growth at 10 uM after 48 hrs by SRB assay relative to control; conditions: A498, 48 h, read-out: Activity
[3] = Cytotoxicity against human SKOV3 cells assessed as cell growth at 10 uM after 48 hrs by SRB assay relative to control; conditions: SK-OV-3, 48 h, read-out: Activity
[4] = Cytotoxicity against human OVCAR8 cells assessed as cell growth at 10 uM after 48 hrs by SRB assay relative to control; conditions: OVCAR-8, 48 h, read-out: Activity
[5] = Cytotoxicity against human OVCAR5 cells assessed as cell growth at 10 uM after 48 hrs by SRB assay relative to control; conditions: OVCAR-5, 48 h, read-out: Activity
MCF7 [6] = assay: Cytotoxicity against human MCF7 cells assessed as cell growth at 10^-4 M after 48 hrs by SRB assay relative to control; conditions: MCF7, 48 h, read-out: Activity
MDA-MB-231 [7] = assay: Cytotoxicity against human MDA-MB-231 cells assessed as cell growth at 10^-4 M after 48 hrs by SRB assay relative to control; conditions: MDA-MB-231, 48 h, read-out: Activity
[8] = Cytotoxicity against human OVCAR5 cells assessed as cell growth at 10^-8 M after 48 hrs by SRB assay relative to control; conditions: OVCAR-5, 48 h, read-out: Activity
[9] = Cytotoxicity against human SKOV3 cells assessed as cell growth at 10^-8 M after 48 hrs by SRB assay relative to control; conditions: SK-OV-3, 48 h, read-out: Activity
[10] = Cytotoxicity against human OVCAR3 cells assessed as cell growth at 10 uM after 48 hrs by SRB assay relative to control; conditions: OVCAR-3, 48 h, read-out: Activity
[11] = Cytotoxicity against human UACC257 cells assessed as cell growth at 10 uM after 48 hrs by SRB assay relative to control; conditions: UACC-257, 48 h, read-out: Activity
Malme-3M = assay: Cytotoxicity against human MALME-3M cells assessed as cell growth at 10 uM after 48 hrs by SRB assay relative to control; conditions: read-out: Activity
LOX IMVI = assay: Cytotoxicity against human LOXIMVI cells assessed as cell growth at 10 uM after 48 hrs by SRB assay relative to control; conditions: read-out: Activity
SNB-75 = assay: Cytotoxicity against human SNB75 cells assessed as cell growth at 10 uM after 48 hrs by SRB assay relative to control; conditions: SNB-75, 48 h, read-out: Activity
HT-29 = assay: Cytotoxicity against human HT-29 cells assessed as cell growth at 10 uM after 48 hrs by SRB assay relative to control; conditions: HT-29, 48 h, read-out: Activity
[12] = Cytotoxicity against human HCT15 cells assessed as cell growth at 10 uM after 48 hrs by SRB assay relative to control; conditions: HCT-15, 48 h, read-out: Activity
[13] = Cytotoxicity against human HCT116 cells assessed as cell growth at 10 uM after 48 hrs by SRB assay relative to control; conditions: HCT-116, 48 h, read-out: Activity
COLO 205 = assay: Cytotoxicity against human COLO205 cells assessed as cell growth at 10 uM after 48 hrs by SRB assay relative to control; conditions: COLO 205, 48 h, read-out: Activity
NCI-H522 = assay: Cytotoxicity against human NCI-H522 cells assessed as cell growth at 10 uM after 48 hrs by SRB assay relative to control; conditions: NCI-H522, 48 h, read-out: Activity
NCI-H322M = assay: Cytotoxicity against human NCI-H322M cells assessed as cell growth at 10 uM after 48 hrs by SRB assay relative to control; conditions: read-out: Activity
HOP-92 = assay: Cytotoxicity against human HOP92 cells assessed as cell growth at 10 uM after 48 hrs by SRB assay relative to control; conditions: HOP-92, 48 h, read-out: Activity
A549 = assay: Cytotoxicity against human A549 cells assessed as cell growth at 10 uM after 48 hrs by SRB assay relative to control; conditions: A549, 48 h, read-out: Activity
RPMI-8226 = assay: Cytotoxicity against human RPMI8226 cells assessed as cell growth at 10 uM after 48 hrs by SRB assay relative to control; conditions: RPMI-8226, 48 h, read-out: Activity
MOLT-4 [14] = assay: Cytotoxicity against human MOLT4 cells assessed as cell growth at 10 uM after 48 hrs by SRB assay relative to control; conditions: MOLT-4, 48 h, read-out: Activity
HL-60(TB) [15] = assay: Cytotoxicity against human HL-60(TB) cells assessed as cell growth at 10 uM after 48 hrs by SRB assay relative to control; conditions: HL-60, 48 h, read-out: Activity
MOLT-4 [16] = assay: Cytotoxicity against human MOLT4 cells after 48 hrs by SRB assay; conditions: MOLT-4, 48 h
HL-60(TB) [17] = assay: Cytotoxicity against human HL-60(TB) cells assessed as cell growth at 10^-6 M after 48 hrs by SRB assay relative to control; conditions: HL-60, 48 h, read-out: Activity
SK-MEL-5 [18] = assay: Cytotoxicity against human SK-MEL-5 cells assessed as cell growth at 10^-6 M after 48 hrs by SRB assay relative to control; conditions: SK-MEL-5, 48 h, read-out: Activity
MCF7 [19] = assay: Cytotoxicity against human MCF7 cells assessed as cell growth at 10^-6 M after 48 hrs by SRB assay relative to control; conditions: MCF7, 48 h, read-out: Activity
SR = assay: Cytotoxicity against human SR cells assessed as cell growth at 10 uM after 48 hrs by SRB assay relative to control; conditions: read-out: Activity
DU-145 = assay: Cytotoxicity against human DU145 cells assessed as cell growth at 10 uM after 48 hrs by SRB assay relative to control; conditions: DU-145, 48 h, read-out: Activity
SF-268 = assay: Cytotoxicity against human SF268 cells assessed as cell growth at 10 uM after 48 hrs by SRB assay relative to control; conditions: SF-268, 48 h, read-out: Activity

SMILES | growth at 10 µM (T47D) [%] | growth at 10 µM (MDA-MB-231 [2]) [%] | growth at 10 µM (TK-10) [%] | growth at 10 µM (ACHN) [%] | growth at 10 µM (A498) [%] | growth at 10 µM [3] [%] | growth at 10 µM [4] [%] | growth at 10 µM [5] [%] | growth at 10 µM [10] [%] | growth at 10 µM [11] [%] | growth at 10 µM (Malme-3M) [%] | growth at 10 µM (LOX IMVI) [%] | growth at 10 µM (SNB-75) [%] | growth at 10 µM (HT-29) [%] | growth at 10 µM [12] [%] | growth at 10 µM [13] [%] | growth at 10 µM (COLO 205) [%] | growth at 10 µM (NCI-H322M) [%] | growth at 10 µM (A549) [%] | growth at 10 µM (RPMI-8226) [%] | also measured
COc1ccc(CCN2COc3c([C@@H](C)CCC=C(C)C)ccc(C)c3C2)cc1OC | -64 | -3 | -26 | 41 | 7 | 59 | 24 | 47 | 16 | 3 | -78 | -65 | 61 | -29 | 2 | -43 | -99 | 5 | 51 | -10 | GI50 (SK-MEL-5 [1]): 1.64 µM; LC50 (SK-MEL-5 [1]): 5.66 µM; TGI (SK-MEL-5 [1]): 3.04 µM; growth at 10 µM (BT-549): 87.9%; growth at 100 µM (MCF7 [6]): -92%; growth at 100 µM (MDA-MB-231 [7]): -91%; growth at 0.01 µM [8]: 92%; growth at 0.01 µM [9]: 97%; growth at 10 µM (NCI-H522): 64.7%; growth at 10 µM (HOP-92): -1.29%; growth at 10 µM (MOLT-4 [14]): 23%; growth at 10 µM (HL-60(TB) [15]): 18%; GI50 (MOLT-4 [16]): 3.69 µM; LC50 (MOLT-4 [16]): > 100 µM; TGI (MOLT-4 [16]): > 100 µM; growth at 1 µM (HL-60(TB) [17]): 100%; growth at 1 µM (SK-MEL-5 [18]): 90%; growth at 1 µM (MCF7 [19]): 99%
CC(C)=CCC[C@H](C)c1ccc(C)c(CNCC2CCNCC2)c1O | 88 | 69 | 89.4 | 81 | 65 | 83 | 85 | 82 | 83 | 64.2 | 88 | 37.1 | 71 | 8.29 | 79 | 63 | -59 | 80 | 86 | 61.7 | GI50 (SK-MEL-5 [1]): 3.41 µM; LC50 (SK-MEL-5 [1]): 12.9 µM; TGI (SK-MEL-5 [1]): 6.63 µM; growth at 100 µM (MCF7 [6]): -89%; growth at 100 µM (MDA-MB-231 [7]): -65%; growth at 10 µM (SR): 0.23%; growth at 0.01 µM [8]: 96%; growth at 0.01 µM [9]: 99%; growth at 10 µM (DU-145): 91.2%; growth at 10 µM (SF-268): 87.7%; growth at 10 µM (NCI-H522): 86.8%; growth at 10 µM (MOLT-4 [14]): 77%; growth at 10 µM (HL-60(TB) [15]): 99%; LC50 (MOLT-4 [16]): > 25 µM; growth at 1 µM (HL-60(TB) [17]): 88%; growth at 1 µM (SK-MEL-5 [18]): 93%; growth at 1 µM (MCF7 [19]): 93%
CC(C)=CCC[C@H](C)c1ccc(C)c2c1OCN(CCCCCO)C2 | 88.1 | 93.4 | 73.7 | 94.1 | 75.3 | 88.8 | 90.1 | 87.4 | 99.7 | 78.4 | 93.7 | 77.6 | 85.6 | 27.2 | 94 | 68.6 | 90 | 102 | 82.5 | 76.7 | growth at 10 µM (BT-549): 72.1%; growth at 10 µM (SR): 66.6%; growth at 10 µM (DU-145): 109%; growth at 10 µM (SF-268): 97.5%; growth at 10 µM (NCI-H522): -1.75%; growth at 10 µM (HOP-92): 27.7%; growth at 10 µM (MOLT-4 [14]): 66.5%; growth at 10 µM (HL-60(TB) [15]): 51.7%
CC(C)=CCC[C@H](C)c1ccc(C)c2c1OCN(CC1CCNCC1)C2 | -94.4 | 64 | 75 | 64 | 64 | 87 | 75.3 | 76 | 77.2 | 24.6 | 90 | -70.5 | 62 | -68.5 | 39.8 | -37.2 | 75.9 | 98 | 54.1 | 23.7 | GI50 (SK-MEL-5 [1]): 4.97 µM; LC50 (SK-MEL-5 [1]): 49.8 µM; TGI (SK-MEL-5 [1]): 18.3 µM; growth at 10 µM (BT-549): 55.8%; growth at 100 µM (MCF7 [6]): -95%; growth at 100 µM (MDA-MB-231 [7]): -77%; growth at 10 µM (SR): -8.52%; growth at 0.01 µM [8]: 88%; growth at 0.01 µM [9]: 101%; growth at 10 µM (DU-145): 93.9%; growth at 10 µM (SF-268): 93%; growth at 10 µM (HOP-92): 12.3%; growth at 10 µM (MOLT-4 [14]): 34.1%; growth at 10 µM (HL-60(TB) [15]): 13.8%; GI50 (MOLT-4 [16]): 14.6 µM; LC50 (MOLT-4 [16]): > 100 µM; TGI (MOLT-4 [16]): 43.3 µM; growth at 1 µM (HL-60(TB) [17]): 82%; growth at 1 µM (SK-MEL-5 [18]): 96%; growth at 1 µM (MCF7 [19]): 104%
